# Where “and” joins values, the source holds several entries; their conditions need not be identical. Equal entries are not always repeated.
# Key:
# [1] = Trypanosoma cruzi proteasome luciferase counter-screen; format: functional, N/A
# [2] = biological target: T1, Ubiquitin-activating enzyme e1, putative (Leishmania donovani (strain BPK282A1), UniProt E9BSI1); test: Leishmania donovani Ubiquitin Activating Enzyme (LdE1); format: functional
# T1 sequence (E9BSI1 whole entry): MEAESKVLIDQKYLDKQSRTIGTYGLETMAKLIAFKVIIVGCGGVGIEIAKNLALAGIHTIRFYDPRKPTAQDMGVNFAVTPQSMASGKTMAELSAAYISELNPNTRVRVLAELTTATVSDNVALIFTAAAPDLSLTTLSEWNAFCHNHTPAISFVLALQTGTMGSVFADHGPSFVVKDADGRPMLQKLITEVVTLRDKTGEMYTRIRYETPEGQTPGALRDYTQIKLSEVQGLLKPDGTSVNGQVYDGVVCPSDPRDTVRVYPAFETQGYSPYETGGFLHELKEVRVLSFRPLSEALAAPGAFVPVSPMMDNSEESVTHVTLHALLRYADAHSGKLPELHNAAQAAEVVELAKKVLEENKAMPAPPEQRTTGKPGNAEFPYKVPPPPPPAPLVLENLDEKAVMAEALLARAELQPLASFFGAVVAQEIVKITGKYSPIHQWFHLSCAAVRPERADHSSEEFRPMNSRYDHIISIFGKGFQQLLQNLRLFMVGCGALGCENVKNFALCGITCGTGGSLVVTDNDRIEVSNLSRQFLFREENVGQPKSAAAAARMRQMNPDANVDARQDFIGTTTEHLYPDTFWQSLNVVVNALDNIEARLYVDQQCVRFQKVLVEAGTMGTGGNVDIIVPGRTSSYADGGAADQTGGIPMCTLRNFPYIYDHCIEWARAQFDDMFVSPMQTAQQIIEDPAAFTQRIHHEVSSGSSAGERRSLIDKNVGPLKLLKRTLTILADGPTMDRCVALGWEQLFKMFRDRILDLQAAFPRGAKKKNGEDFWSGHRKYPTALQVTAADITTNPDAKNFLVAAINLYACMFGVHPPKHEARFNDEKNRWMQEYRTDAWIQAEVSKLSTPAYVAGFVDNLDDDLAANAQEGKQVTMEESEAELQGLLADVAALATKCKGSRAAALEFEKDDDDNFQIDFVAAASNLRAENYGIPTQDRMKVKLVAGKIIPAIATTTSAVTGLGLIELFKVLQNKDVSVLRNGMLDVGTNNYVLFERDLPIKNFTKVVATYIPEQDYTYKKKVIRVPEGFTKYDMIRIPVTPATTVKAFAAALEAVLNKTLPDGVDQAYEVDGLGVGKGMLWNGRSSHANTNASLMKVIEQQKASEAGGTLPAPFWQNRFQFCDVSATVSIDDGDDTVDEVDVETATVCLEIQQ
# [3] = biological target: T2, Proteasome subunit beta (Trypanosoma cruzi, UniProt O96673); test: Trypanosoma cruzi proteasome chymotrypsin-like activity (TcProtChymo) assay.; format: functional
# T2 sequence (O96673 whole entry): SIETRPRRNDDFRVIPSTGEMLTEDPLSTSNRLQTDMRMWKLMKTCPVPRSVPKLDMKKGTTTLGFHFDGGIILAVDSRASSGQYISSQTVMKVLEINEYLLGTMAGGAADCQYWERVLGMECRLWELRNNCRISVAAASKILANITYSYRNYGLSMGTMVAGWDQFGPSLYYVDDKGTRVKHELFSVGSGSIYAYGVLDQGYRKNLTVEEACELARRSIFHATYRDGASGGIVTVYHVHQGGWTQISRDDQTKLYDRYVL
# [4] = tested on: Schistosoma mansoni; test: High throughput screening of compounds against Schistosoma mansoni motility; format: functional; design: dose or concentration left out as unconfirmed
# [5] = biological target: T3, Arginase-2, mitochondrial (Homo sapiens, UniProt P78540); test: in vitro enzyme assay to detect the production of urea directly proportional to the activity of Arginase II; format: functional
# T3 sequence (P78540 whole entry): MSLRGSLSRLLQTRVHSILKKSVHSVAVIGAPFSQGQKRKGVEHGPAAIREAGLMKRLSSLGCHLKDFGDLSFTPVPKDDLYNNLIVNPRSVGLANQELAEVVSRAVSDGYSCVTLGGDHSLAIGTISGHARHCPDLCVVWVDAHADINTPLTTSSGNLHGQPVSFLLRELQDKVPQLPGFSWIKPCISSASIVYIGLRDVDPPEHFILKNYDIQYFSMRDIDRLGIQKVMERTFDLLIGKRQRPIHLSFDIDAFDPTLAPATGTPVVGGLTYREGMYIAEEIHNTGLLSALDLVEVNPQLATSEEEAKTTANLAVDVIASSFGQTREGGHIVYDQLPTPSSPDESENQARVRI
# [6] = biological target: Protein translocase subunit SecA (Escherichia coli (strain K12), UniProt P10408); test: Assay to Identify E. coli SecA ATPase Inhibitors; format: functional
# Sequence of Protein translocase subunit SecA (P10408 whole entry, the tested form may be a part): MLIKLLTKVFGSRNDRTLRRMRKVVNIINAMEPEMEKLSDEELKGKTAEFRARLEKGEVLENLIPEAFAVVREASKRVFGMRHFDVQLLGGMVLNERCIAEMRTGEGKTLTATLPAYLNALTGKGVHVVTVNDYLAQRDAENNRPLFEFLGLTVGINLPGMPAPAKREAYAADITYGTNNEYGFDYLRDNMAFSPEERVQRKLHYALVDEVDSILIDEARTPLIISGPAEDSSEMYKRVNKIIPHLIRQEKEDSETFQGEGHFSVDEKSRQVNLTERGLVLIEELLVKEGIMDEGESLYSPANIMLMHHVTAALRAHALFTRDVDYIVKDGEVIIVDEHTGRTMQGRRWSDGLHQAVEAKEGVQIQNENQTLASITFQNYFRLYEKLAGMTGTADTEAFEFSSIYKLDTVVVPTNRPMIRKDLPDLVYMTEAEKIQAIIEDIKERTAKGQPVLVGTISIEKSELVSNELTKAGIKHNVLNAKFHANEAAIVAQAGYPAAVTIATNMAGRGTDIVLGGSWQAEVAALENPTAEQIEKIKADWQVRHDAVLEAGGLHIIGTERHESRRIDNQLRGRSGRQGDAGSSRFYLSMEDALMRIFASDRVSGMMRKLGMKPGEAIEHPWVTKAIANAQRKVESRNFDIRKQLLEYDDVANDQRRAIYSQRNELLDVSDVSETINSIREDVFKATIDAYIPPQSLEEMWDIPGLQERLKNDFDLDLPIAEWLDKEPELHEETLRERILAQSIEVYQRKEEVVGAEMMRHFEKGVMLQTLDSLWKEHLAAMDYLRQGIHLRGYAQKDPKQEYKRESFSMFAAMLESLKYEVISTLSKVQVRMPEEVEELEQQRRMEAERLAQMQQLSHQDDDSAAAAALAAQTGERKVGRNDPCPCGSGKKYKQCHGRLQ
# [7] = biological target: Chromo domain-containing protein 1 (Saccharomyces cerevisiae (strain ATCC 204508 / S288c) (Baker's yeast), UniProt P32657); test: ScCHD-1 Enzyme Inhibition Assay; format: functional
# Sequence of Chromo domain-containing protein 1 (P32657 whole entry, the tested form may be a part): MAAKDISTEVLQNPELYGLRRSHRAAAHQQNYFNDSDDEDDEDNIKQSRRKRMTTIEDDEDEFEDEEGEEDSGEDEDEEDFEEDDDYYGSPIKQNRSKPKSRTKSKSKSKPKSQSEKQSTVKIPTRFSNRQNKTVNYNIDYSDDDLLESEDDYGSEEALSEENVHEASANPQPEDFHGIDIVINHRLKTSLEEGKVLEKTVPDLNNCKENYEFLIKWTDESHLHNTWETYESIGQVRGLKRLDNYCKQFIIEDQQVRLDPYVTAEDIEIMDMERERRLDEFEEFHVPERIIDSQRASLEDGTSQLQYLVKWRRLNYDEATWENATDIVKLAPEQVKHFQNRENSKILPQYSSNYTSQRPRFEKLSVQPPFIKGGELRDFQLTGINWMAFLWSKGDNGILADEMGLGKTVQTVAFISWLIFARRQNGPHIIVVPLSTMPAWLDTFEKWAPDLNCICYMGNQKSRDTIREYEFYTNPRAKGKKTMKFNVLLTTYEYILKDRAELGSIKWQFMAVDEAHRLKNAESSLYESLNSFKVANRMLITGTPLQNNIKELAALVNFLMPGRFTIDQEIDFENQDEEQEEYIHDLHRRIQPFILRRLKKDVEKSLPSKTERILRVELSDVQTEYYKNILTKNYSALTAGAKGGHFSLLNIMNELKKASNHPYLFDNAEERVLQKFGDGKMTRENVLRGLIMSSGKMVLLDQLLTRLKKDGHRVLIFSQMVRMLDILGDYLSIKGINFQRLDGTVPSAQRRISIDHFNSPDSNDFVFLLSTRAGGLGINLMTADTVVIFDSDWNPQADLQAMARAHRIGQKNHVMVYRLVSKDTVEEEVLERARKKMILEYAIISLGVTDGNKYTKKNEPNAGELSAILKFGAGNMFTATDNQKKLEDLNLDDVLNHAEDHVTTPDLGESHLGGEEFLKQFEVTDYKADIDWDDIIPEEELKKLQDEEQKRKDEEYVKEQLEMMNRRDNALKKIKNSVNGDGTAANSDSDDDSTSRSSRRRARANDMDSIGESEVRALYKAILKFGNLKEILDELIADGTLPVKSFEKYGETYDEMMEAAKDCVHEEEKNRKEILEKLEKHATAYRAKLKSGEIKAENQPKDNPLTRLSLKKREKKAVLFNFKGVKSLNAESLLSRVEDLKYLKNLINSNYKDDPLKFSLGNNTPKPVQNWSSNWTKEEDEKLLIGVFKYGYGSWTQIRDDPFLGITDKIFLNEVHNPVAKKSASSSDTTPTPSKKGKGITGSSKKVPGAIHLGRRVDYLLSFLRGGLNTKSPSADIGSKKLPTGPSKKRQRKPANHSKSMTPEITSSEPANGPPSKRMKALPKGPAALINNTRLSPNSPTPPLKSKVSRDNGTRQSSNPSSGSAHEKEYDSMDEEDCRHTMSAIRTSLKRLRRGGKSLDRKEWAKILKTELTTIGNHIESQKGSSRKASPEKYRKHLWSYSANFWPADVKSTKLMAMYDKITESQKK
# [8] = biological target: Lysine--tRNA ligase (Plasmodium falciparum (isolate 3D7), UniProt Q8IDJ8); test: Pf-KRS-1 (Lysyl-RNA Synthetase-1, KRS-1, cytosolic KRS) from Plasmodium falciparum. Inhibitor assay, 384 well plate, luminescence read.; format: functional
# Sequence of Lysine--tRNA ligase (Q8IDJ8 whole entry): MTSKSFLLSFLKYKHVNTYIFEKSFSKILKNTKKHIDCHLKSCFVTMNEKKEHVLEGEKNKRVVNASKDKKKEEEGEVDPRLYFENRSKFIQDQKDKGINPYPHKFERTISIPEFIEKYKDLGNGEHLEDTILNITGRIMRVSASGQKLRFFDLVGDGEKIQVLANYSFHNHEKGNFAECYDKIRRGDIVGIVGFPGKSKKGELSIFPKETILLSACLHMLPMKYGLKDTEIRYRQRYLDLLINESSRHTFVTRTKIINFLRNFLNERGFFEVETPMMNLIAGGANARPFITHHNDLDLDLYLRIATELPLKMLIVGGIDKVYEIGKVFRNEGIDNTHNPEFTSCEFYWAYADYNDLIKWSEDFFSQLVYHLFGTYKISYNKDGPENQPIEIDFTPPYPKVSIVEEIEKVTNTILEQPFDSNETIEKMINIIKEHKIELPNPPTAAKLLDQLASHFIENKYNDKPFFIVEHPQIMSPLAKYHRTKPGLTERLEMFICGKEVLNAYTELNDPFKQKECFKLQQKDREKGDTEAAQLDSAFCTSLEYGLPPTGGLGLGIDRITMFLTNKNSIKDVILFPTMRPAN
# [9] = tested on: Plasmodium falciparum; test: Plasmodium falciparum sporozoite viability assay; format: functional, organism-based; settings: for IC50: Plasmodium falciparum
# [10] = biological target: Polyketide synthase Pks13 (Mycobacterium tuberculosis (strain ATCC 25618 / H37Rv), UniProt I6X8D2); test: Mycobacterium tuberculosis Polyketide synthase 13 Thioesterase (PKS13); format: functional
# Sequence of Polyketide synthase Pks13 (I6X8D2 whole entry): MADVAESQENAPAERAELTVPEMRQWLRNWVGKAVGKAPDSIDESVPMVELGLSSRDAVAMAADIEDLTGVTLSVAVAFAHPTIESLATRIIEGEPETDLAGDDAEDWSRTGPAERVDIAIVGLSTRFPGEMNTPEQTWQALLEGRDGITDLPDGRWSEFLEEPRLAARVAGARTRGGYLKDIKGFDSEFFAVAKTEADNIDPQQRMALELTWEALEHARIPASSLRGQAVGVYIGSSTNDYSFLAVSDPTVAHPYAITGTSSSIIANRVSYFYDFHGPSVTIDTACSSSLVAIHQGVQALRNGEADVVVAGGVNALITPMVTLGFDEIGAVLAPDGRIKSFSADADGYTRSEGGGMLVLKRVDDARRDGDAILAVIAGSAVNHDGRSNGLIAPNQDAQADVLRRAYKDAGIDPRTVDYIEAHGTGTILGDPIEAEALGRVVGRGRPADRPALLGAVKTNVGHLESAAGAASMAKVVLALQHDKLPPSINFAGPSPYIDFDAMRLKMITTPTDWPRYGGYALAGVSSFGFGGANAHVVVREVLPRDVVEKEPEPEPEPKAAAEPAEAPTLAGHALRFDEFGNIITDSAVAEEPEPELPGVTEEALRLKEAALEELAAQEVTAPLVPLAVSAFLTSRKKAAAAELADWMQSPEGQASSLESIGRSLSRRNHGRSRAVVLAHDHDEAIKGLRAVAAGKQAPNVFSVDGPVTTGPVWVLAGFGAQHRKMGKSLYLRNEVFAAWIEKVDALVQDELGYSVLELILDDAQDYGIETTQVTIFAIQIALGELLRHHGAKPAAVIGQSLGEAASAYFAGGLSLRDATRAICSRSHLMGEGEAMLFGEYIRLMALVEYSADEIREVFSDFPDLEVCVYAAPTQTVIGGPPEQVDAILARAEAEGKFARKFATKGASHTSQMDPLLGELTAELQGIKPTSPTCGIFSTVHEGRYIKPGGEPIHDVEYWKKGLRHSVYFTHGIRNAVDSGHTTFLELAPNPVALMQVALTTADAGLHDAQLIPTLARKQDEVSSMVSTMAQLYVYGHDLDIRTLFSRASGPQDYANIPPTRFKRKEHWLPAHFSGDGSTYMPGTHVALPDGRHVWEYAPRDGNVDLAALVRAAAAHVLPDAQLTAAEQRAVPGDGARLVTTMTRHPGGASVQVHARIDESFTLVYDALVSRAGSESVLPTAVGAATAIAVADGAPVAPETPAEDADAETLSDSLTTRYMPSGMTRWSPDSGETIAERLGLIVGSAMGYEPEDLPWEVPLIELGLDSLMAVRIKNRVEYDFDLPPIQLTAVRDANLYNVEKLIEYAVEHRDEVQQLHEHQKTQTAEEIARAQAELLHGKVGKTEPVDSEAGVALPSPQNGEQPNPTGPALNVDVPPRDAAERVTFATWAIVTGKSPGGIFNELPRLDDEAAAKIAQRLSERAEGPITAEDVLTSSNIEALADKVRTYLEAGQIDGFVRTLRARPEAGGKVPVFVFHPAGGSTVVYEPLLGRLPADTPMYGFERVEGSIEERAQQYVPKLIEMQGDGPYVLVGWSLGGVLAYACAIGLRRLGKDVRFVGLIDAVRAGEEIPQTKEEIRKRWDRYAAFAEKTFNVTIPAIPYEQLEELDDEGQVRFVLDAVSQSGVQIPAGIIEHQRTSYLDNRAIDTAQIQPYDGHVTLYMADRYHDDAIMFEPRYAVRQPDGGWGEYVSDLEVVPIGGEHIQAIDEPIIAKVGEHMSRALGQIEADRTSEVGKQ
# [11] = microbe, parasite or virus in culture; settings: Mycobacterium tuberculosis, 96 h, read-out: pIC50 (converted)
# [12] = microbe, parasite or virus in culture; settings: Mycobacterium tuberculosis, 72 h, read-out: pIC50 (converted)
# [13] = biological target: T4, Coenzyme A biosynthesis bifunctional protein CoaBC (Mycobacterium tuberculosis (strain ATCC 25618 / H37Rv), UniProt P9WNZ1); test: Biomol Green assay for MtCoaBC inhibitor, OD650 read; format: functional
# T4 sequence (P9WNZ1 whole entry): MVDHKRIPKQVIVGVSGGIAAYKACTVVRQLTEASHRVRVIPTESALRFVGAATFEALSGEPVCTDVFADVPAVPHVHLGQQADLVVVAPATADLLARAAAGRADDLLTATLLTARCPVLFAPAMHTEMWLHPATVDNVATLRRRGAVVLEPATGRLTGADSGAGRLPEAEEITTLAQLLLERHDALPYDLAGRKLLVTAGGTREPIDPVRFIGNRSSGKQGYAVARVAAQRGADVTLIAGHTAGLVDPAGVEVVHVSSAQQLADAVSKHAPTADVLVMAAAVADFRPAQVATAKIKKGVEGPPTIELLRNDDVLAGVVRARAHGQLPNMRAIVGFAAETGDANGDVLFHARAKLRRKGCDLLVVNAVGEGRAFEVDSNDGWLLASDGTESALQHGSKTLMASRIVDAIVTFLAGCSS
Compound,IC50 [5],further results
Cc1nc(C)c(C(=O)OCCNc2ncccc2C#N)s1,,pIC50 [1]: 4.56 and 4.563; IC50 [2]: > 100 µM; IC50 [3]: 7.22 µM and 8.26 µM
COc1ccccc1Oc1ncccc1CNC(=O)C(C)N1CCCC1 (centres undefined),> 100 µM,Percent Effect [4]: 13.35%
COc1ccc(-n2ncc(C(=O)NCC3COC(C)(C)O3)c2N)cc1 (centres undefined),,IC50 [6]: > 100 µM
Cc1cnc(CN(Cc2ccccc2)CC(O)c2cccs2)cn1 (centres undefined),> 100 µM,
CN(CCO)C(=O)c1coc(CN2CCN(c3ccccc3F)CC2)n1,> 100 µM,IC50 [7]: > 29.5 µM
CN(C)C(=O)[C@@H]1CCO[C@@H]2CCN(CCc3ccccc3)C[C@@H]21,> 100 µM,IC50 [8]: > 50.1 µM
CCn1c(NCc2ccco2)nc2c(C)nn(C)c2c1=O,> 100 µM,
Cc1ccc([C@@H]2CN(S(=O)(=O)N(C)C)C[C@H]2N(C)C)cc1,> 100 µM,
CNC(=O)[C@H]1C[C@@H]2CN(C(=O)c3ccco3)C[C@@H]2N1S(C)(=O)=O,> 100 µM,
CCC(C(=O)NC)N(c1cccc(C)c1)S(C)(=O)=O (centres undefined),> 100 µM,
O=C(NCc1ccncc1)N(Cc1ccccc1F)C1CC1,> 100 µM,
COc1cccc(CNCc2nnc3n2CC(C(F)(F)F)CC3)c1 (centres undefined),> 100 µM,
CCNC(=O)Nc1ccc2c(ccn2CC(=O)N(CC)CC)c1,,IC50 [6]: > 100 µM
CCc1c(C(=O)NCC2CCS(=O)(=O)C2)cnn1-c1ccc(C)cc1 (centres undefined),,IC50 [6]: > 100 µM
CC1(C)OCC(CNC(=O)c2cnn(-c3cc(Cl)ccc3Cl)c2N)O1 (centres undefined),,IC50 [6]: > 100 µM
CC1=Nc2c(c(=O)[nH]n2C2CCOCC2)C(c2cccc(Br)c2)S1 (centres undefined),> 100 µM,
Cc1nc(NCC2CC2)nc2c1COCC21CCN(C)C1 (centres undefined),> 100 µM,
CS(=O)(=O)NCC(=O)N1CCCC1c1noc(C2CC2)n1 (centres undefined),> 100 µM,
CSc1ccccc1C(C(=O)O)N1CCN(Cc2ccccn2)CC1 (centres undefined),> 100 µM,
O=C(COc1cccc(Br)c1)N1CCN(c2nccs2)CC1,> 100 µM,IC50 [7]: > 29.5 µM
Cc1ncsc1CCC(=O)N1CCCC[C@H](N(C)C)C1,> 100 µM,
CC(O)CNCc1ccc(OCc2ccc3c(c2)OCCO3)cc1.Cl (centres undefined),,pIC50 [1]: 4.507 and 4.501; pIC50 [9]: 6.937; IC50 [9]: 0.0903 µM; IC50 [3]: 9.3 µM and 9.77 µM
COc1ccccc1CN1CCC2(CC1)CC(Oc1ccccn1)CO2 (centres undefined),> 100 µM,
CN1CCCC1c1ccc(C(=O)N2CCc3ccccc3C2)s1 (centres undefined),,pIC50 [1]: 4.715 and 4.643; pIC50 [9]: 6.857; IC50 [9]: 0.121 µM; IC50 [3]: 10.3 µM and 8.37 µM
COC(=O)Cn1cccc(S(=O)(=O)N2CCC(C)CC2)c1=O,> 100 µM,IC50 [10]: > 100 µM
COCCNC(=O)c1cn(C(C)(C)C)c2ncccc12,,IC50 [6]: > 100 µM

Compound,IC50 [5],further results
Cc1nc(CCNC(=O)N2CCC(Cc3cnn(C)c3)C2)cs1 (centres undefined),> 100 µM,
CCN(C)c1ccc(C(=O)N(CCOC)Cc2ccccn2)cc1,> 100 µM,
COc1ccc2c(c1)OCC(CNC(=O)c1ccncc1)C2 (centres undefined),> 100 µM,IC50 [7]: > 29.5 µM
Cc1[nH]ccc1C(=O)N1CCCC(c2nccn2Cc2cscn2)C1 (centres undefined),> 100 µM,
COc1ccc(-c2nc(CN3CC(n4cc(C)cn4)C3)no2)cc1,> 100 µM,IC50 [11]: 39.7 µM; IC50 [12]: 47 µM
CCCc1c(C(=O)NC2CCCC2)nnn1-c1ccc(OC)cc1,,IC50 [6]: > 100 µM
O=C(NCc1ccccn1)[C@]12COC[C@H]1CN(C1CCC1)C2,> 100 µM,
C[S+]([O-])CCCNC(=O)c1cc(Br)c2c(c1)OCCO2 (centres undefined),> 100 µM,
CN(C)c1ncc(CN2CCOC(C(=O)Nc3ccccc3)C2)cn1 (centres undefined),> 100 µM,
O=C1CSC(c2ccsc2)c2c(n(C3CCOCC3)[nH]c2=O)N1 (centres undefined),> 100 µM,
COCC(C)NC(=O)c1cn(C(C)(C)C)c2ncccc12 (centres undefined),,IC50 [6]: > 100 µM
CN(Cc1ccccn1)C1COC2(CCN(Cc3cccnc3)CC2)C1 (centres undefined),> 100 µM,
COc1cccc([C@@H]2CN(C(=O)c3ccc(C)cc3O)C[C@H]2C(=O)O)c1,> 100 µM,
Cc1nn(CCO)c(C)c1CNC1CCc2c(Cl)cccc21 (centres undefined),> 100 µM,
O=c1[nH]c2c(c(=O)n1C1CCCCC1)CCC2Nc1ccccc1Cl (centres undefined),> 100 µM,IC50 [8]: 14 µM
COCCN1C[C@@H]2CCCO[C@@H]2[C@H](N(C)Cc2ccco2)C1,> 100 µM,
CCn1cc(CN(C)S(=O)(=O)c2cnn(CC)c2C)c(C)n1,,IC50 [6]: > 100 µM
O=C(Cn1ccc2c(Cl)cccc21)N1CCC2(CC1)OCCO2,> 100 µM,
CC(C)c1n[nH]c(C(=O)Nc2cc[nH]n2)c1Br,,pIC50 [1]: 4.666 and 4.69; pIC50 [9]: 7.564; IC50 [9]: 0.0186 µM; IC50 [3]: 5.88 µM and 6.65 µM
COCCn1ccc2cc(NC(C)=O)ccc21,,IC50 [6]: > 100 µM
CC(C)CN1CCC(NC(=O)c2ccc(F)cc2I)CC1,> 100 µM,Percent Effect [4]: 28.14%
O=C(CO)N1CCC(c2cncc(-c3cccc(Cl)c3)n2)CC1,> 100 µM,IC50 [13]: > 30.2 µM
O=C(Cn1nc2c(cc1=O)CSCC2)NC(Cc1ccccc1)C(=O)O (centres undefined),> 100 µM,
COCc1c(C(=O)NC2CCCC2)nnn1-c1ccc(C)cc1,,IC50 [6]: > 100 µM
Cc1ccc2c(ccn2CCC(=O)O)c1,,IC50 [6]: > 100 µM
Cc1cc(CNC(=O)N2CCN(c3nc(C)c(C)s3)CC2)no1,> 100 µM,

# Source: ChEMBL document CHEMBL3988442, “University of Dundee, Small-Polar-MMV Screening Library” (2021)
